Measured values from the supplement of paper PMC8960247.
± gives the standard error.

Key:
[1] = system: 621-102 (TSC2-deficient); assay: relative viability vs DMSO; higher = less cytotoxic; details: serum: 10% FBS, 72 h
[2] = system: 621-103 (TSC2-rescued); assay: as above; details: serum: 10% FBS, 72 h
[3] = system: 621-102 (TSC2-deficient); assay: relative viability vs DMSO (fraction); higher = less cytotoxic; details: serum: 0.1% FBS, 72 h
[4] = system: UMB1949 (TSC2-deficient); assay: as above; details: serum: 0.1% FBS, 72 h;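 further: renal angiomyolipoma cell lines screened in 384-well plates, viability normalized per plate to DMSO-treated cells, each plate carrying 50 nM rapamycin and 1 µM staurosporine controls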

| SMILES | relative viability ([1]; 0.0001 µM) | relative viability ([1]; 0.001 µM) | relative viability ([1]; 0.01 µM) | relative viability ([1]; 0.1 µM) | relative viability ([1]; 1 µM) | relative viability ([1]; 10 µM) | relative viability ([2]; 0.0001 µM) | relative viability ([2]; 0.001 µM) | relative viability ([2]; 0.01 µM) | relative viability ([2]; 0.1 µM) | relative viability ([2]; 1 µM) | relative viability ([2]; 10 µM) | relative viability ([3]; 0.0128 nM) | relative viability ([3]; 0.064 nM) | relative viability ([3]; 0.32 nM) | relative viability ([3]; 1.6 nM) | relative viability ([3]; 8 nM) | relative viability ([3]; 40 nM) | relative viability ([3]; 200 nM) | relative viability ([3]; 1000 nM) | relative viability ([3]; 5000 nM) | relative viability ([4]; 0.0128 nM) | relative viability ([4]; 0.064 nM) | relative viability ([4]; 0.32 nM) | relative viability ([4]; 1.6 nM) | relative viability ([4]; 8 nM) | relative viability ([4]; 40 nM) | relative viability ([4]; 200 nM) | relative viability ([4]; 1000 nM) | relative viability ([4]; 5000 nM) |
| --- | --- | --- | --- | --- | --- | --- | --- | --- | --- | --- | --- | --- | --- | --- | --- | --- | --- | --- | --- | --- | --- | --- | --- | --- | --- | --- | --- | --- | --- | --- |
| CC(C)C[C@H](NC(=O)[C@H](Cc1ccccc1)NC(=O)c1cnccn1)B(O)O [Bortezomib] | 110 ± 1.3% | 102 ± 2.8% | 5.8 ± 0.15% | 3.06 ± 0.034% | 2.21 ± 0.16% | 1.87 ± 0.13% | 97.4 ± 1.6% | 90 ± 4.2% | 2.332 ± 0.012% | 1.43 ± 0.049% | 1.14 ± 0.0052% | 1.03 ± 0.066% | 1.07 | 1.03 | 0.903 | 0.16 | 0.0107 | 0.00306 | 0.00178 | 0.000877 | 0.000659 | 1.02 | 0.99 | 1.02 | 0.62 | 0.0154 | 0.00739 | 0.0026 | 0.000806 | 0.000906 |
| CC(C)C[C@@H](C(=O)N[C@H](C(=O)OC1CCCC1)c1ccccc1)[C@H](O)C(=O)NO [CHR-2797] | 112 ± 1.6% | 116 ± 2.4% | 114.53 ± 0.03% | 102 ± 1.6% | 89.8 ± 1.5% | 82 ± 2.1% | 103 ± 2.1% | 105.3 ± 0.65% | 115 ± 1.4% | 111 ± 7.5% | 104.4 ± 0.14% | 89.6 ± 2.7% | 0.86 | 0.866 | 0.628 | 0.884 | 0.614 | 0.512 | 0.414 | 0.345 | 0.144 | 1.06 | 0.998 | 0.978 | 1.02 | 0.982 | 0.804 | 0.875 | 0.595 | 0.0151 |
| Nc1nc(Cl)nc2c1ncn2[C@@H]1O[C@H](CO)[C@@H](O)[C@@H]1F [Clofarabine] | 114 ± 4.2% | 104.4 ± 0.4% | 103 ± 2.5% | 96.69 ± 0.62% | 49.3 ± 1.3% | 51.8 ± 2.4% | 107 ± 2.7% | 101.98 ± 0.033% | 102.7 ± 0.28% | 91.6 ± 3.6% | 47.38 ± 0.098% | 46.8 ± 2.5% | 1.11 | 0.982 | 1.02 | 0.905 | 0.929 | 0.0836 | 0.0188 | 0.0106 | 0.00741 | 1.06 | 0.989 | 1.02 | 1.05 | 1.05 | 0.404 | 0.00754 | 0.00286 | 0.00163 |
